Our source for the inhibition and IC50 values is article PMC12138715, “Exploring Boswellia serrata Triterpenes: A New Frontier in Leukemia Inhibitory Factor Receptor Modulation” (ACS Omega, 2025).

Experiment [1] deals with leukemia inhibitory factor receptor (LIFR). Briefly: cells. The arrangement: LIFR/STAT3 luciferase reporter transactivation, LIF 10 ng/mL stimulated, Renilla normalized. The settings on record: Homo sapiens, HepG2, 24 h; LIF 10 ng/mL stimulated; read-out: Transactivation Inhibition (%), 50 µM. The method, then:
Luciferase Reporter Gene Assay To evaluate the LIFR/STAT3 signaling, HepG2 (HB, 8065 from ATCC), were seeded at 7.5 × 10^4 cells/well in a 24-well plate and maintained at 37 °C and 5% CO2 in E-MEM added with 10% FBS, 1% glutamine, and 1% penicillin/streptomycin. On day-1, cells were transiently transfected with the reporter plasmid pGL4.47[luc2P/SIE/Hygro] (CAT no. E4041 Promega, Madison, WI, USA), a vector encoding the hLIFR (CAT no. RC226327) and CD130 (IL6ST) (CAT no. RC215123, OriGene Technologies, Inc. Rockville, MD USA), and finally a vector encoding the human Renilla luciferase gene (pGL4.70) (Promega, Madison, WI, USA). On day-2, cells were primed with the cytokine LIF (10 ng/mL) alone or in combination with different compounds at the concentrations of 10 μM and 50 μM. Then, after 24 h, cellular lysate was assayed for luciferase and Renilla activities using the Firefly & Renilla Luciferase Single TubeAssay Kit (Biotium, Fremont, CA). Luminescence was measured using Glomax 20/20 luminometer (Promega, Madison, WI, USA). Luciferase activities were normalized with Renilla activities.

Experiment [2] deals with T1, leukemia inhibitory factor receptor (LIFR) (Homo sapiens, UniProt P42702).
T1 construct: Recombinant human LIFR (His-Tag)
T1 sequence (P42702 45-1097): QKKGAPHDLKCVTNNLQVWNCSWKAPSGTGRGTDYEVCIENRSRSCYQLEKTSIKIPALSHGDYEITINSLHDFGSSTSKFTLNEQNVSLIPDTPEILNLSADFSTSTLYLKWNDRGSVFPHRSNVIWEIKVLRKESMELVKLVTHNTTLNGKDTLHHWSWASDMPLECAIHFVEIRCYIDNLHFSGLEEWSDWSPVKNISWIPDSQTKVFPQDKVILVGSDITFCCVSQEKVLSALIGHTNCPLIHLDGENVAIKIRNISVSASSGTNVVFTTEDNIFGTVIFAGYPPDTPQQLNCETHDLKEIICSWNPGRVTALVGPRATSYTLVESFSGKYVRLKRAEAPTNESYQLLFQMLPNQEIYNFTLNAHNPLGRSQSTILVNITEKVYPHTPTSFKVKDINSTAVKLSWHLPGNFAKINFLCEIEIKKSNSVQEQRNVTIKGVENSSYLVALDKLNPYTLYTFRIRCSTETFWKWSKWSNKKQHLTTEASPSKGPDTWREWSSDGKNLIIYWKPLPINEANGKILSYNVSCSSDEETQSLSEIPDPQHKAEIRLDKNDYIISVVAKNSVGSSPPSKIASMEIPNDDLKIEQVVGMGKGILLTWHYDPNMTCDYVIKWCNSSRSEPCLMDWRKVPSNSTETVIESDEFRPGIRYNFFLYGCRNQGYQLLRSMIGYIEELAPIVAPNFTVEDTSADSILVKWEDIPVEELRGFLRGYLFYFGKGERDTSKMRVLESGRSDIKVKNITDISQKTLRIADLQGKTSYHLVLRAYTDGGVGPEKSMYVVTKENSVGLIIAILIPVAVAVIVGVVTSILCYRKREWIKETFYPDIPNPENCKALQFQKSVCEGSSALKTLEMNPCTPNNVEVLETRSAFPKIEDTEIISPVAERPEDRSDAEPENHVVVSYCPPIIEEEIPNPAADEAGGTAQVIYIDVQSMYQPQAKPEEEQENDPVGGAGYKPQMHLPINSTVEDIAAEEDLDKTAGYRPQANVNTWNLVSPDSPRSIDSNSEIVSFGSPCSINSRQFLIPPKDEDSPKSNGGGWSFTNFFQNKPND
T1 sequence (P15018 23-202 partner): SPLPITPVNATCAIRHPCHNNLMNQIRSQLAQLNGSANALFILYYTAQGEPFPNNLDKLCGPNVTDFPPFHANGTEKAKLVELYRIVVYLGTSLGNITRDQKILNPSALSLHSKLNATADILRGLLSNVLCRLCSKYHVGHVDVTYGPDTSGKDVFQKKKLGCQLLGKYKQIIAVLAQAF
Briefly: biochemical. The arrangement: Alpha Screen inhibition of biotinylated LIF binding to His-tagged human LIFR. The following applies: LIF/LIFR binding. The method, then:
Amplified Luminescent Proximity Homogeneous Assay on LIF-LIFR Recombinant human LIFR (His-Tag) and LIF (biotinylated) were purchased from Sino Biologicals (Sino Biological Europe GmbH, Dusseldorf, Germany) and R&D Systems (Abingdon, UK), respectively, and both were reconstituted as required by the manufacturer. Inhibition of LIFR/LIF binding was measured by Alpha Screen, in white, low-volume, 384-well AlphaPlates (Revvity, Italy) using a final volume of 15 μL and an assay buffer containing 25 mM Hepes (pH 7.4), 100 mM NaCl, and 0.005% Kathon. The concentration of DMSO in each well was maintained at 5% vol/vol. LIFR (His-Tag, final concentration 4.5 nM) was incubated with either the compounds or DMSO for 45 min under continuous shaking. Then, LIF was added (biotinylated, final concentration 9 nM), and the samples were incubated for 15 min prior to adding nickel chelate acceptor beads (final concentration 20 ng/μL) for 30 min. Then, streptavidin donor beads were added (final concentration 20 ng/μL), and the plate was incubated in the dark for 2 h and then read in a Victor Nivo (Revvity, Italy) Multimode Microplate Reader.

For experiment [3], the target named is T1, leukemia inhibitory factor receptor (LIFR). Briefly: cell-free AlphaScreen LIF/LIFR binding inhibition; LIFR transactivation in HepG2.
Experiment [4] has the same target. Briefly: cell-free AlphaScreen LIF/LIFR binding inhibition.

`CC1CCC2(C)CCC3(C)C(=CCC4C5(C)CCC(O)C(C)(C(=O)NCCS(=O)(=O)O)C5CCC43C)C2C1C` (stereo not shown) [compound 23, 23]: the inhibition at 50 µM in experiment [1] was determined as 70.2%. Also, in experiment [2], the inhibition at 10 µM was 52.9% and the inhibition at 50 µM was 88.5%. `CC1(C)CC[C@]2(C)CC[C@]3(C)C(=CC[C@@H]4[C@@]5(C)CC[C@@H](O)[C@](C)(C(=O)O)[C@@H]5CC[C@]43C)[C@@H]2C1` [compound 1, (4R)-3α-Hydroxyolean-12-en-24-oic Acid] gave an IC50 in experiment [3] of less than 10 µM. On to `C[C@H]1[C@H](C)CC[C@]2(C)CC[C@]3(C)C(=CC[C@@H]4[C@@]5(C)CC[C@@H](O)[C@](C)(C(=O)O)[C@@H]5CC[C@]43C)[C@H]12` [compound 2, (4R)-3α-Hydroxyurs-12-en-24-oic Acid], for which the IC50 in experiment [3] was less than 10 µM. With `CC1CCC2(C)CCC3(C)C(=CCC4C5(C)CCC(O)C(C)(C(=O)NCC(=O)O)C5CCC43C)C2C1C` (stereo not shown) [compound 24, 24], the inhibition at 50 µM in experiment [1] amounted to 74.8%. In experiment [2], the inhibition at 10 µM was determined as 48.7% and the inhibition at 50 µM came out at 86.9%.

On to `CC1(C)CCC2(C)CCC3(C)C(=CCC4C5(C)CCC(O)C(C)(C(=O)NCC(=O)O)C5CCC43C)C2C1` (stereo not shown) [compound 22, 22], for which the inhibition at 50 µM in experiment [1] was 58.3%. Moreover, in experiment [2], at 10 µM the inhibition was 51.3% and the inhibition at 50 µM was 83.7%.

In experiment [4], `CC(C)=CCC[C@H](C(=O)O)[C@@H]1CC[C@]2(C)C3=C(CC[C@@]12C)[C@@]1(C)CCC(=O)C(C)(C)[C@@H]1CC3` [compound 17, 3-Oxotirucalla-8,24-dien-21-oic Acid] displayed an IC50 of less than 10 µM. On to `CC(=O)O[C@@H]1CC[C@@]2(C)[C@@H](CC[C@]3(C)[C@@H]2CC=C2[C@@H]4[C@@H](C)[C@H](C)CC[C@]4(C)CC[C@]23C)[C@@]1(C)C(=O)O` [compound 4, (4R)-3α-Acetylurs-12-en-24-oic Acid], for which the IC50 in experiment [4] (read-out: IC50) is less than 10 µM.

Consider `CC1(C)CCC2(C)CCC3(C)C(=CCC4C5(C)CCC(O)C(C)(C(=O)NCCS(=O)(=O)O)C5CCC43C)C2C1` (stereo not shown) [compound 21, 21], for which the inhibition at 50 µM in experiment [1] was 68.8%; in experiment [2], 67.7%. The inhibition at 10 µM in experiment [2] came to 45.4%. For the compound `CC(=O)O[C@@H]1CC[C@@]2(C)[C@@H](CC[C@]3(C)[C@@H]2CC=C2[C@@H]4CC(C)(C)CC[C@]4(C)CC[C@]23C)[C@@]1(C)C(=O)O` [compound 3, (4R)-3α-Acetylolean-12-en-24-oic Acid], the IC50 in experiment [4] (read-out: IC50) is less than 10 µM. Compound `CC(C)=CCC[C@H](C(=O)O)[C@@H]1CC[C@]2(C)C3=C(CC[C@@]12C)[C@@]1(C)CC[C@@H](O)C(C)(C)[C@@H]1CC3` [compound 15, 3α-Hydroxytirucalla-8,24-dien-21-oic Acid] came in with an IC50 in experiment [4] of less than 10 µM. `CC(C)=CCC[C@H](C(=O)O)[C@@H]1CC[C@]2(C)C3=C(CC[C@@]12C)[C@@]1(C)CC[C@H](O)C(C)(C)[C@@H]1CC3` [compound 16, 3β-Hydroxytirucalla-8,24-dien-21-oic Acid] showed an IC50 in experiment [4] of less than 10 µM.
